Reference: patent US10098900B2, “Pharmaceutical compositions and their use for treatment of cancer and autoimmune diseases” (ZHEJIANG DTRM BIOPHARMA CO. LTD., priority 2015, dated 2018)
Marks after values point to notes of the source that are not given here.

Legend:
[1] = system: adjuvant-induced arthritis; assay: Adjuvant-induced arthritis (AA/AIA) model in female Lewis rats (paw volume, clinical score, histopathology); type: in vivo, rat; design: Pathological score (Mean ± SEM), Inflammatory cell infiltration / Pathological score (Mean ± SEM), Pannus growth / Pathological score (Mean ± SEM), Cartilage injury / Pathological score (Mean ± SEM), Bone resorption / Pathological score (Mean ± SEM), Total: scale not given here; conditions: for Paw volume (mL), Mean: 5 mg/kg BID
Text: Adjuvant-Induced Arthritis AA Model: […] All rats except the normal group were immunized with complete Freund's adjuvant (CFA) subcutaneously at the left hind paw to induce arthritis at day 0. […] The treatments were given orally for 3 consecutive weeks. The body weight, paw volume and clinical score were monitored every other day after day 13 throughout the course of the study. At the terminal point, right hind paws were collected for histopathology analysis with H.E. staining.

[2] = system: resistant WSU-DLCL2 cell line; assay: Inhibition assay of tumor cell activity (cell viability), WSU-DLCL2; type: cell-based; conditions: Homo sapiens, WSUDLCL2, individual compound, read-out: Inh % on resistant WSU-DLCL2 cell line (AVG)
Procedure: Inhibition Assay of Tumor Cell Activity:
Tumor cells (TMD-8, DoHH2 and WSU-DLCL2) were transferred and attached to 96-well plates. After one night, blank buffer and selected concentrations (0.01 nM-100 μM) of the test compound solution were added. After 48 hours incubation, CellTiter-Go was added to lyse the cells. Recording luminescent signal and calculate the percent inhibition of cell viability

C=CC(=O)N1CC[C@@H](n2nc(-c3ccc(Oc4c(F)c(F)cc(F)c4F)cc3F)c3c(N)ncnc32)C1 [Compound 3, 1-((R)-3-(4-amino-3-(2-fluoro-4-(2,3,5,6-tetrafluorophenoxy)phenyl)-1H-pyrazolo[3,4-d]pyrimidin-1-yl)pyrrolidin-1-yl)prop-2-en-1-one]
Paw volume (mL), Mean ([1]; Day 0): 1.04 mL
Paw volume (mL), Mean ([1]; Day 17): 1.87 ns mL
Paw volume (mL), Mean ([1]; Day 26): 2.29** mL
Paw volume (mL), Mean ([1]; Day 28): 2.12*** mL
Paw volume (mL), Mean ([1]; Day 31): 2.12*** mL
Paw volume (mL), Mean ([1]; Day 33): 2.09*** mL
effect on paw volume ([1]; AA rats model, FIG. 13): absent
Pathological score (Mean ± SEM), Bone resorption ([1]; AA study, 3 alone, 5 mg/kg): 3.0 ± 0.45
Pathological score (Mean ± SEM), Cartilage injury ([1]; AA study, 3 alone, 5 mg/kg): 2.8 ± 0.51
Pathological score (Mean ± SEM), Inflammatory cell infiltration ([1]; AA study, 3 alone, 5 mg/kg): 3.5 ± 0.34
Pathological score (Mean ± SEM), Pannus growth ([1]; AA study, 3 alone, 5 mg/kg): 3.2 ± 0.53
Pathological score (Mean ± SEM), Total ([1]; AA study, 3 alone, 5 mg/kg): 12.5 ± 1.78
inhibition at 0.01 µM ([2]; 0.01 uM): -10.1%
inhibition at 0.1 µM ([2]; 0.1 uM): -1.36%
inhibition at 1 µM ([2]; 1 uM): 41%
